Values belong to the molecule of their own block, whether it stands above or below them.
How the values were obtained:
[1] = molecular target: T1, Serine/threonine-protein kinase D1 (Homo sapiens) (UniProt Q15139); assay: Inhibition of PKD1 (unknown origin) at 0.45 uM relative to control
T1 sequence (whole entry): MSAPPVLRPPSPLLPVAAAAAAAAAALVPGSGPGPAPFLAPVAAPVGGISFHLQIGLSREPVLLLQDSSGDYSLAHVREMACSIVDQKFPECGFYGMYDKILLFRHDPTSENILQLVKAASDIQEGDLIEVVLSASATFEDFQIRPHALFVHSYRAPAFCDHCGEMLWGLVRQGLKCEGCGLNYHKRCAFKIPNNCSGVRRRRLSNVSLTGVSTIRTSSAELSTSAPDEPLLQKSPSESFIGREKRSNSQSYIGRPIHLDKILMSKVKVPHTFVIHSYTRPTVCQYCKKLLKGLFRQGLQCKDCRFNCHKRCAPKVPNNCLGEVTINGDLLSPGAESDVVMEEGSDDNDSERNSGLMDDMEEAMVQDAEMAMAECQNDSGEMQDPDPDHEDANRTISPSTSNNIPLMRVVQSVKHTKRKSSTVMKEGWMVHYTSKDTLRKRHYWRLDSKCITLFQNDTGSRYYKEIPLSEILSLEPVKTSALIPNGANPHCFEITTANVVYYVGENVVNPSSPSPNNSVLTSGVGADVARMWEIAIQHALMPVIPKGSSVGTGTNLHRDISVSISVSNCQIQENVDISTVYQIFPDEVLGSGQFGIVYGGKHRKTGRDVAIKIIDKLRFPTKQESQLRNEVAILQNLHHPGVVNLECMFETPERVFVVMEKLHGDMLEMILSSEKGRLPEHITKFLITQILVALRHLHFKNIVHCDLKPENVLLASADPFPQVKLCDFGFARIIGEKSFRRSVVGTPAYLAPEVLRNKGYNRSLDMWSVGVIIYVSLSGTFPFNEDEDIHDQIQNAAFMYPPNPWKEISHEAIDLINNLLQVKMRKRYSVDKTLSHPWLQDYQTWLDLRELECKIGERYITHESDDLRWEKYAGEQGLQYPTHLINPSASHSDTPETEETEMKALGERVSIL

[2] = test system: Fibroblast growth factor receptor 1 (Homo sapiens), P11362 [V561M]; assay: Inhibition of FGFR1 V561M mutant (unknown origin) at 0.164 uM relative to control
Chain of Fibroblast growth factor receptor 1 (Homo sapiens), P11362 [V561M] (P11362 whole entry V561M): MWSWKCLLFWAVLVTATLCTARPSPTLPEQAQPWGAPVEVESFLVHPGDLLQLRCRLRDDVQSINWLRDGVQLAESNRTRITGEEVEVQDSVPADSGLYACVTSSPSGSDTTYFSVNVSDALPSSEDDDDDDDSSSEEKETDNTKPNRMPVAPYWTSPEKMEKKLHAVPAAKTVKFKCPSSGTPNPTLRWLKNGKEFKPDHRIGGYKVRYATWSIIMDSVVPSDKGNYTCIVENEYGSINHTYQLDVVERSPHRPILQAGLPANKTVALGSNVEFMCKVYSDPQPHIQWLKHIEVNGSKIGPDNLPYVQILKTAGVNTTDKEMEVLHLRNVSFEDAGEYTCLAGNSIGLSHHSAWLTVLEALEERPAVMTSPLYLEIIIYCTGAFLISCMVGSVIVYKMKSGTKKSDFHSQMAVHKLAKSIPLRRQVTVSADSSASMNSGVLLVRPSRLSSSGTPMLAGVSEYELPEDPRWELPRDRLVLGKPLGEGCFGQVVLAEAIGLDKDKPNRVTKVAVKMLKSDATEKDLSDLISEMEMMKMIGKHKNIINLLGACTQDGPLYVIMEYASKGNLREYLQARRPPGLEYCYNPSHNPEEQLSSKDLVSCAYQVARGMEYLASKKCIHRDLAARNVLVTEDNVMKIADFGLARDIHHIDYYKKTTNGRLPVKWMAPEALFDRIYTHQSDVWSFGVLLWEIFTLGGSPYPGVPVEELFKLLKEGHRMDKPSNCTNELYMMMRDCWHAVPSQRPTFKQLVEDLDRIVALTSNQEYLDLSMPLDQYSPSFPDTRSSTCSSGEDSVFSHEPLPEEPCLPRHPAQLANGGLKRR

[3] = molecular target: ALK tyrosine kinase receptor (Homo sapiens) (UniProt Q9UM73); assay: Inhibition of ALK (unknown origin) at 0.164 uM relative to control
Chain of ALK tyrosine kinase receptor (Homo sapiens) (Q9UM73 19-1620 limits assumed): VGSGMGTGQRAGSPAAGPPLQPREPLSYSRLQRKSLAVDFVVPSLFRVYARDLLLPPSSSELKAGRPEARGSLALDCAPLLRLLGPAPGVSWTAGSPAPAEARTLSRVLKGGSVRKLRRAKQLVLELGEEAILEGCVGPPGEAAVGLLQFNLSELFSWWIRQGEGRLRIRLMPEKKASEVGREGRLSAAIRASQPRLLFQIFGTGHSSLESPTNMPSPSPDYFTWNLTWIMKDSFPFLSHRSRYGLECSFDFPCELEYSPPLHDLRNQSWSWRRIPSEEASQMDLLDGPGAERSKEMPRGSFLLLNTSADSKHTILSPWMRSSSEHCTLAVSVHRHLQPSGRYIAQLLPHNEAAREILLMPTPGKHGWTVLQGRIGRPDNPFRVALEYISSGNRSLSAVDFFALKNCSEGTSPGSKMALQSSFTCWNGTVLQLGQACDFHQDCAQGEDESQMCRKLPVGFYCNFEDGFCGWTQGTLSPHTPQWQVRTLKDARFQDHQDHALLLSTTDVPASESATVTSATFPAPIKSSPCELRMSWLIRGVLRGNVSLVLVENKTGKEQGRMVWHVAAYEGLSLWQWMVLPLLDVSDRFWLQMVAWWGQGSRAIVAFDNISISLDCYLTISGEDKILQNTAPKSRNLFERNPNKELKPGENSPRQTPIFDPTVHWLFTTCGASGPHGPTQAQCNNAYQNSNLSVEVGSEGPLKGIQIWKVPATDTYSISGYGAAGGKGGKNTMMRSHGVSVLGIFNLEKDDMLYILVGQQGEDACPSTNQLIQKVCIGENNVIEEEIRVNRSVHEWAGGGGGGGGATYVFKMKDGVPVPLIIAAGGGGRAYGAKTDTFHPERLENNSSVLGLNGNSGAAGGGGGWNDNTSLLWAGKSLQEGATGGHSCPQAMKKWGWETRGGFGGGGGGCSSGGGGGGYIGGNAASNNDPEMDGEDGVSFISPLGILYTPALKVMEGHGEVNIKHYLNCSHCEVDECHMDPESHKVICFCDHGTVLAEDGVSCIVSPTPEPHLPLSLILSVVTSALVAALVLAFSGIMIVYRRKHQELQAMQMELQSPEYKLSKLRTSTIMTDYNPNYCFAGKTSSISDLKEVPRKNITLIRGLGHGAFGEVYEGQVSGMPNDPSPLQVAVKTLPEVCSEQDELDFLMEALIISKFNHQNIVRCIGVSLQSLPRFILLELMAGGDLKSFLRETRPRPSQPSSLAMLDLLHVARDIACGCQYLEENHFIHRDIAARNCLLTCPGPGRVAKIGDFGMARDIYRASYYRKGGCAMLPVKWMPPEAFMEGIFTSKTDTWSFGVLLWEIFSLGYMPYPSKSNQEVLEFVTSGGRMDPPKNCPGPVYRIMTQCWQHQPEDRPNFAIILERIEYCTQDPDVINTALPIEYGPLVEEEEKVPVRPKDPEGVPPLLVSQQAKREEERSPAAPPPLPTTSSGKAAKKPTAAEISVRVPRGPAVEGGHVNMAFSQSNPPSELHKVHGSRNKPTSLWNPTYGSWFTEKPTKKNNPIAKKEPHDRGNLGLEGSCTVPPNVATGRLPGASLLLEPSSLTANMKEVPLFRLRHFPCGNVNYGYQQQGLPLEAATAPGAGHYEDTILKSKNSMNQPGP

HepG2 = assay: Inhibition of human recombinant BMP6-stimulated hepcidin mRNA expression in human HepG2 cells after 6 hrs by qRT-PCR analysis; assay type: functional, cell-based; conditions: HepG2, 6 h
[4] = molecular target: Tyrosine-protein kinase Yes (Homo sapiens) (UniProt P07947); assay: Inhibition of Yes (unknown origin) at 0.164 uM relative to control
[5] = molecular target: Calcium/calmodulin-dependent protein kinase type 1 (Homo sapiens) (UniProt Q14012); assay: Inhibition of CaMK1a (unknown origin) at 0.164 uM relative to control
Chain of Calcium/calmodulin-dependent protein kinase type 1 (Homo sapiens) (Q14012 whole entry, looked up): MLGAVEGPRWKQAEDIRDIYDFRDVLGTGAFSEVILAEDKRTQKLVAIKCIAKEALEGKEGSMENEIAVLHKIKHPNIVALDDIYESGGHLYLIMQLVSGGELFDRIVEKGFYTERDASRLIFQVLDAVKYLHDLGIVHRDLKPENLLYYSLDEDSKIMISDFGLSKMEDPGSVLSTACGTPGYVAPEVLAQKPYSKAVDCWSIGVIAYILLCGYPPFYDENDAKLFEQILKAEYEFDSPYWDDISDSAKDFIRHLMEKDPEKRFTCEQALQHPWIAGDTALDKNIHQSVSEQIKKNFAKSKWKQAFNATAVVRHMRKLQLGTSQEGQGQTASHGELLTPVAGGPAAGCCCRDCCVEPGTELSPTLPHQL

[6] = test system: Fibroblast growth factor receptor 2 (Homo sapiens), P21802 [N549H]; assay: Inhibition of FGFR2 N549H mutant (unknown origin) at 0.164 uM
[7] = molecular target: Serine/threonine-protein kinase PAK 5 (Homo sapiens) (UniProt Q9P286); assay: Inhibition of PAK5/PAK7 (unknown origin) at 0.164 uM relative to control
Chain of Serine/threonine-protein kinase PAK 5 (Homo sapiens) (Q9P286 whole entry, looked up): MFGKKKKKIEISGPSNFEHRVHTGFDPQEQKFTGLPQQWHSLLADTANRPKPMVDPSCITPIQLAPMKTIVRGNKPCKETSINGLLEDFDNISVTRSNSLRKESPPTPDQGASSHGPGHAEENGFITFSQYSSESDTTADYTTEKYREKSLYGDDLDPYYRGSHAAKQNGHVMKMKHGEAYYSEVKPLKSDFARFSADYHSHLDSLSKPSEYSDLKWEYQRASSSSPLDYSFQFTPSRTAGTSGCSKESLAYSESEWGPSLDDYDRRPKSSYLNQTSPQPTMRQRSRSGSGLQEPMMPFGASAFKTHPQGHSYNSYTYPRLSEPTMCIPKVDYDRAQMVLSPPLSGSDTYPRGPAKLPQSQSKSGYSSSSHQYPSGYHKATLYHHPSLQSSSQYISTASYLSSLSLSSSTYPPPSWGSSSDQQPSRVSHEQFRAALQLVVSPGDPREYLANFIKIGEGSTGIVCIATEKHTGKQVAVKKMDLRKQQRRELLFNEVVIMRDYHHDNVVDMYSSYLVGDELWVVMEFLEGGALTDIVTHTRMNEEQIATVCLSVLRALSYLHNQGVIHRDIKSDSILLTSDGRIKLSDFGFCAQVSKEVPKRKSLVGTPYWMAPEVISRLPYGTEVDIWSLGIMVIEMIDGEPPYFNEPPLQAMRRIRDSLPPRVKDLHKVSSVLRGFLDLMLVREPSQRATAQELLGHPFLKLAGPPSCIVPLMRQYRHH

[8] = test system: Proto-oncogene tyrosine-protein kinase receptor Ret (Homo sapiens), P07949 [V804L]; assay: Inhibition of Ret V804L mutant (unknown origin) at 0.164 uM relative to control
[9] = molecular target: Insulin receptor (Homo sapiens) (UniProt P06213); assay: Inhibition of INSR (unknown origin) at 0.164 uM relative to control
[10] = molecular target: Serine/threonine-protein kinase MARK1 (Homo sapiens) (UniProt Q9P0L2); assay: Inhibition of MARK1 (unknown origin) at 0.19 uM relative to control
[11] = molecular target: ALK tyrosine kinase receptor (Homo sapiens) (UniProt Q9UM73); assay: Inhibition of ALK (unknown origin) at 0.19 uM relative to control
[12] = molecular target: cAMP-dependent protein kinase catalytic subunit PRKX (Homo sapiens) (UniProt P51817); assay: Inhibition of PRKX (unknown origin) at 0.19 uM relative to control
Chain of cAMP-dependent protein kinase catalytic subunit PRKX (Homo sapiens) (P51817 whole entry): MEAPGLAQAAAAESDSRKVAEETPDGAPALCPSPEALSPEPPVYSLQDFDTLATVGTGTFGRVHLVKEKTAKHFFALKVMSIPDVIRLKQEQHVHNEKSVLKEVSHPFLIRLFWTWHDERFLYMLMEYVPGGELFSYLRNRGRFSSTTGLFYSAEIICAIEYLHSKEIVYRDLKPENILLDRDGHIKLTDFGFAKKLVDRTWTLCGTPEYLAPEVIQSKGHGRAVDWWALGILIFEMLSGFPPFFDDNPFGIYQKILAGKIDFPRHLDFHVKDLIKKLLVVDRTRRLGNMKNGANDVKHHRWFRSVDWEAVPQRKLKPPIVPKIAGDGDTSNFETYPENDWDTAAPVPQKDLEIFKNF

[13] = molecular target: Glycogen synthase kinase-3 beta (Homo sapiens) (UniProt P49841); assay: Inhibition of GSK3b (unknown origin) at 0.19 uM relative to control
[14] = molecular target: Serine/threonine-protein kinase Sgk1 (Homo sapiens) (UniProt O00141); assay: Inhibition of SGK1 (unknown origin) at 0.19 uM relative to control
[15] = molecular target: Fibroblast growth factor receptor 4 (Homo sapiens) (UniProt P22455); assay: Inhibition of FGFR4 (unknown origin) at 0.19 uM relative to control
[16] = molecular target: Casein kinase I isoform gamma-2 (Homo sapiens) (UniProt P78368); assay: Inhibition of CK1-gamma2 (unknown origin) at 0.19 uM relative to control
[17] = molecular target: Interleukin-1 receptor-associated kinase 4 (Homo sapiens) (UniProt Q9NWZ3); assay: Inhibition of IRAK4 (unknown origin) at 0.19 uM relative to control
[18] = molecular target: Tyrosine-protein kinase Lyn (Homo sapiens) (UniProt P07948); assay: Inhibition of LYNB (unknown origin) at 0.19 uM relative to control
[19] = molecular target: Cytoplasmic tyrosine-protein kinase BMX (Homo sapiens) (UniProt P51813); assay: Inhibition of BMX (unknown origin) at 0.19 uM relative to control
[20] = molecular target: Serine/threonine-protein kinase PAK 4 (Homo sapiens) (UniProt O96013); assay: Inhibition of PAK4 (unknown origin) at 0.19 uM relative to control
[21] = test system: Platelet-derived growth factor receptor alpha (Homo sapiens), P16234 [V561D]; assay: Inhibition of PDGFRA V561D mutant (unknown origin) at 0.19 uM relative to control
Chain of Platelet-derived growth factor receptor alpha (Homo sapiens), P16234 [V561D] (P16234 whole entry V561D): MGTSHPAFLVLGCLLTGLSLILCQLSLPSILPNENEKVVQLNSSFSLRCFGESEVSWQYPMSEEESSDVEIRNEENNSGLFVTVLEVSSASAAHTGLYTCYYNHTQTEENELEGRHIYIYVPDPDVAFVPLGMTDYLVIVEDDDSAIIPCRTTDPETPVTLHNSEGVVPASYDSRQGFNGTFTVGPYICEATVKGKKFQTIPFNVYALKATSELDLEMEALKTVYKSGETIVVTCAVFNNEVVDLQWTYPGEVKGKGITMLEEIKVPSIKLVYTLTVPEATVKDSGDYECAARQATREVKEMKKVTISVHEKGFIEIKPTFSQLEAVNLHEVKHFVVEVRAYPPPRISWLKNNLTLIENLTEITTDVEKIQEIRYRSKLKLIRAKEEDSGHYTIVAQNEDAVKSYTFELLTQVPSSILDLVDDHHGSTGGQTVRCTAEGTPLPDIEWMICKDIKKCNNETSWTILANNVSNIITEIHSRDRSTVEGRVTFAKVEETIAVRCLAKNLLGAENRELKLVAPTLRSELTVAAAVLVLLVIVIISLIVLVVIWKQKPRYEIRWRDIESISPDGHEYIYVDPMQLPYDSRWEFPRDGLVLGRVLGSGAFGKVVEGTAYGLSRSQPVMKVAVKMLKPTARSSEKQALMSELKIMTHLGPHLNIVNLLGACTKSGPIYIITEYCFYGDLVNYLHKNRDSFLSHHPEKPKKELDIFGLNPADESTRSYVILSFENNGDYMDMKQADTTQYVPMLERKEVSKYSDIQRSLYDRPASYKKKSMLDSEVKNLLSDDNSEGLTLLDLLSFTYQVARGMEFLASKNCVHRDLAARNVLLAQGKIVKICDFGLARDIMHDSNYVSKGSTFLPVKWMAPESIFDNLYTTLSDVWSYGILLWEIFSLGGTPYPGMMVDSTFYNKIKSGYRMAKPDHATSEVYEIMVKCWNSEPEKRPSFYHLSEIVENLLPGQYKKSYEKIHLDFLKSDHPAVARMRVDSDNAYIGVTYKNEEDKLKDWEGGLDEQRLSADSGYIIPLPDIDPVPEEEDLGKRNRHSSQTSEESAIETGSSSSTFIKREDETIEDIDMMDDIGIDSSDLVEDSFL

[22] = molecular target: STE20-like serine/threonine-protein kinase (Homo sapiens) (UniProt Q9H2G2); assay: Inhibition of SLK (unknown origin) at 0.19 uM relative to control
[23] = molecular target: Rho-associated protein kinase 1 (Homo sapiens) (UniProt Q13464); assay: Inhibition of ROCK1 (unknown origin) at 0.19 uM relative to control
[24] = test system: Fibroblast growth factor receptor 4 (Homo sapiens), P22455 [V550L]; assay: Inhibition of FGFR4 V550L mutant (unknown origin) at 0.19 uM relative to control
[25] = molecular target: Casein kinase I isoform gamma-3 (Homo sapiens) (UniProt Q9Y6M4); assay: Inhibition of CK1-gamma3 (unknown origin) at 0.19 uM relative to control
[26] = molecular target: Protein kinase C gamma type (Homo sapiens) (UniProt P05129); assay: Inhibition of PKC-gamma (unknown origin) at 0.19 uM relative to control
[27] = test system: Tyrosine-protein kinase ABL1 (Homo sapiens), P00519 [Q252H]; assay: Inhibition of Abl Q252H mutant (unknown origin) at 0.19 uM relative to control

inhibition [1]: 1.3%
SMILES: Cc1n[nH]c(C)c1-c1ccc2c(NC(=O)c3ccc(N4CCN(C)CC4)cc3)n[nH]c2c1

inhibition [2]: 4.7%
inhibition [3]: 4.3%
IC50 (HepG2): 93 to 10000 nM
inhibition [4]: 3%
inhibition [5]: 3.3%
inhibition [6]: -3.3%
inhibition [7]: 5%
inhibition [8]: 0.7%
inhibition [9]: -6%
SMILES: COC(=O)Nc1cc(-c2c(C3CC3)n[nH]c2C)cc2[nH]ncc12

inhibition [10]: -5.3%
inhibition [11]: 6.7%
inhibition [12]: 2.3%
inhibition [13]: 3.3%
inhibition [14]: 6.3%
IC50 (HepG2): 120 nM
inhibition [15]: 5.3%
inhibition [16]: 3.3%
inhibition [17]: 4.3%
inhibition [18]: 10.7%
inhibition [19]: -3.7%
inhibition [20]: 0.7%
inhibition [21]: 63.3%
inhibition [22]: 29.7%
inhibition [23]: -7.3%
inhibition [24]: 0.7%
inhibition [25]: 1%
inhibition [26]: -7.3%
inhibition [27]: 71%
SMILES: Cc1[nH]nc(C2CC2)c1-c1ccc2c(-c3ccc(N4CCN(C)CC4)nc3)n[nH]c2c1

Source: ChEMBL document CHEMBL4118098, “Discovery of DS28120313 as a potent orally active hepcidin production inhibitor: Design and optimization of novel 4,6-disubstituted indazole derivatives” (Bioorg Med Chem Lett, 2017)
